Here are results for seven molecules from ChEMBL document CHEMBL3616396, “Integrated kinetic studies and computational analysis on naphthyl chalcones as mushroom tyrosinase inhibitors” (Bioorg Med Chem Lett, 2015).

Test [1] has as its target T1, Tyrosinase (Agaricus bisporus) (UniProt O42713).
T1 sequence (whole entry): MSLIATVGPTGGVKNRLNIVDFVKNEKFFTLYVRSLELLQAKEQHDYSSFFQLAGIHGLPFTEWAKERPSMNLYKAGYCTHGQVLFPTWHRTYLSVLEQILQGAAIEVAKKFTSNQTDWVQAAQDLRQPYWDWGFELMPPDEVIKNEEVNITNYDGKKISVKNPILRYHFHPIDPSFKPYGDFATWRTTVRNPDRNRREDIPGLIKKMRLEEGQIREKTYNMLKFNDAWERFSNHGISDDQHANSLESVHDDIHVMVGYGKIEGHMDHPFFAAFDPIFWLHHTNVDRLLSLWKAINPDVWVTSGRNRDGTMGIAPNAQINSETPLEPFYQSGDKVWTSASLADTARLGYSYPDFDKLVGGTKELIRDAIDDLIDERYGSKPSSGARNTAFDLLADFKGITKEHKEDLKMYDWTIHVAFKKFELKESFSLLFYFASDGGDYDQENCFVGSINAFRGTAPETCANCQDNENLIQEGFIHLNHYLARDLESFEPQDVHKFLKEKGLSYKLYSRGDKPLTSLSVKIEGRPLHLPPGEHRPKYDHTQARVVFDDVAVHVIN
The test is described as follows: Competitive inhibition of mushroom tyrosinase assessed as reduction in L-DOPA oxidase activity at 0.15 mM to 0.6 mM using L-DOPA substrate by Lineweaver-Burk plot.

Test [2] has as its target T2, Tyrosinase (Agaricus bisporus, UniProt O42713).
T2 sequence (O42713 whole entry): T1 sequence (whole entry)
Description: Inhibition of mushroom tyrosinase assessed as reduction in L-DOPA oxidase activity using L-DOPA substrate

The target in test [3] is T2, Tyrosinase. This is another data set of the same source.
Description: Inhibition of mushroom tyrosinase assessed as reduction in L-DOPA oxidase activity using L-DOPA substrate at 5 uM by Dixon plot

Active and inactive are the calls of the source. The calls are words filed in the database; no cut-off is given here.

As for `COc1ccc(/C=C/C(=N\O)c2cc3ccccc3cc2O)cc1OC`, the inhibition result in test [1] was “Active”. It took 42.3 µM to reach half-maximal inhibition at Tyrosinase [2] (IC50). For the same molecule, the Ki on Tyrosinase [3] is 22.9 µM.
On the same counts, the results for `COc1ccc(OC)c(/C=C/C(=N\O)c2cc3ccccc3cc2O)c1` are “Active”, 21.9 µM and 9.4 µM.
As to `O/N=C(\C=C\c1ccncc1)c1cc2ccccc2cc1O`, the inhibition result in test [1] is “Active”. At Tyrosinase [2], the IC50 was 19.5 µM. The affinity at Tyrosinase [3], expressed as Ki, was 7.82 µM.
With `O/N=C(\C=C\c1cccnc1)c1cc2ccccc2cc1O`, in test [1], the inhibition entry is “Active”. Also, on Tyrosinase [2], the IC50 turned out to be 12.2 µM. Also, the Ki at Tyrosinase [3] was determined as 6.46 µM.
On the same counts, the results for `O/N=C(\C=C\c1ccccn1)c1cc2ccccc2cc1O` are “Active”, 20.2 µM and 11.1 µM.
On the same counts, the results for `COc1cc(/C=C/C(=N\O)c2cc3ccccc3cc2O)cc(OC)c1` are “Active”, 52.9 µM and 28.6 µM.
For `COc1ccc(/C=C/C(=N\O)c2cc3ccccc3cc2O)c(OC)c1`, in test [1], the inhibition result was “Active”. The molecule also returned an IC50 against Tyrosinase [2] of 23 µM. This molecule displayed a Ki on Tyrosinase [3] of 10.6 µM.
